Experimental findings from ChEMBL document CHEMBL1201862, “PubChem BioAssay data set” (2004) are described below.

For one test, the target named is T1, Hexokinase HKDC1 (Homo sapiens, UniProt Q2TB90).
T1 sequence (Q2TB90 whole entry): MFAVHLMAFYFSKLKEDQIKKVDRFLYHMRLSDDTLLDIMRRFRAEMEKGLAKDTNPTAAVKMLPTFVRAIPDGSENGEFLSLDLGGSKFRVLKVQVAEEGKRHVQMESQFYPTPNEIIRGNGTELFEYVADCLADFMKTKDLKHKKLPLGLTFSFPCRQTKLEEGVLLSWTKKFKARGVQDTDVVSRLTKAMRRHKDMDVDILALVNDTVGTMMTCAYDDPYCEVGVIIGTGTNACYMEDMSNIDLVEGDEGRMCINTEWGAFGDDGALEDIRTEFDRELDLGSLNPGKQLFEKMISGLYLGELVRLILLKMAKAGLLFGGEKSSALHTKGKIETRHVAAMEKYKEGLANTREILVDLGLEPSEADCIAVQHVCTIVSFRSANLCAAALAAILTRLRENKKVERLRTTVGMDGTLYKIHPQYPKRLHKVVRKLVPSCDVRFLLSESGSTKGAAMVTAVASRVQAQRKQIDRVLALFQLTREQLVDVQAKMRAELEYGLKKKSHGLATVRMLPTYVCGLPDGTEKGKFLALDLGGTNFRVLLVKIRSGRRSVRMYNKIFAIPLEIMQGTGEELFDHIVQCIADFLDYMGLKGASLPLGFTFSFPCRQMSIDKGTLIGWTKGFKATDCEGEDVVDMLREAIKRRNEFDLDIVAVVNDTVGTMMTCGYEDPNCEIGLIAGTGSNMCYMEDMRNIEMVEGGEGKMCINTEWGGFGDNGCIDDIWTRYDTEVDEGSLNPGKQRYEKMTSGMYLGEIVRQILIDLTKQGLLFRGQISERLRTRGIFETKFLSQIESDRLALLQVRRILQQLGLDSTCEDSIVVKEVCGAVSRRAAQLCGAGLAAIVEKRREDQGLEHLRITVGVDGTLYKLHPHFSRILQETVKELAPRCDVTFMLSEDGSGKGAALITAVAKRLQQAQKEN
In words: HKDC1 hexokinase activators, dose response, biochemical, W721R variant (AID 504730). The test is classed as functional.

The next test deals with Hexokinase-1 (Homo sapiens, UniProt P19367). In words: hexokinase 1 activators, dose response, selectivity assay for HKDC1 activator project, biochemical (AID 504762). The test is classed as functional.
Hexokinase-1, sequence (P19367 whole entry): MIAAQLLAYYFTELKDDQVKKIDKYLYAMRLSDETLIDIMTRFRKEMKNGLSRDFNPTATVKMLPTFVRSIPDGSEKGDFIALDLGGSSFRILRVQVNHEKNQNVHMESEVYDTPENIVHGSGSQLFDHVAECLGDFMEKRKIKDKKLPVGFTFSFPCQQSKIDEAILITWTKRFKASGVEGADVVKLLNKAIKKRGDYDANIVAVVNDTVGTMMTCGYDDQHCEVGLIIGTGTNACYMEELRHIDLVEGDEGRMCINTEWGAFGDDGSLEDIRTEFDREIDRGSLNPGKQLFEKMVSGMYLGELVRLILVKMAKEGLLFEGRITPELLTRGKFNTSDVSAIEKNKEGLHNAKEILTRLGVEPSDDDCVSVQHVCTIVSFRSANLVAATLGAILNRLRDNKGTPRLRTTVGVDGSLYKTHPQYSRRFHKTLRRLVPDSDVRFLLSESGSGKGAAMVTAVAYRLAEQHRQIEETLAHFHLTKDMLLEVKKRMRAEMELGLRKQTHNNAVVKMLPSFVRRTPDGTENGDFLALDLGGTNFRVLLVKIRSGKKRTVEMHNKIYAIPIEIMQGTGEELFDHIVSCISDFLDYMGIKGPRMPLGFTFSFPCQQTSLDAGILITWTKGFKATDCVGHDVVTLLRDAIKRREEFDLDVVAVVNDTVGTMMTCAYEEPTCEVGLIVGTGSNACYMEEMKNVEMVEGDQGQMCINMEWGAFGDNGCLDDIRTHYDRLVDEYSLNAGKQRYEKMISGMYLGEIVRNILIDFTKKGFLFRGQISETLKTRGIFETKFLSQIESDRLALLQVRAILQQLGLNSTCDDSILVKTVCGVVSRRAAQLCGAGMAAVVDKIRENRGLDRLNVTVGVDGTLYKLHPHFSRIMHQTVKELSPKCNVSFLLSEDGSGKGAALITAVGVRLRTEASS
Test [1] is described as follows: human group III sPLA2 inhibitors, dose response, biochemical, QFRET, IC50 (AID 743457).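 Further: green fluorescence rise as the enzyme cleaves BODIPY PC-A2 in liposomes; potency for inhibition of the enzyme.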
Test [2] has as its target T2, Ubiquitin-conjugating enzyme E2 N (Homo sapiens, UniProt P61088).
T2 sequence (P61088 whole entry): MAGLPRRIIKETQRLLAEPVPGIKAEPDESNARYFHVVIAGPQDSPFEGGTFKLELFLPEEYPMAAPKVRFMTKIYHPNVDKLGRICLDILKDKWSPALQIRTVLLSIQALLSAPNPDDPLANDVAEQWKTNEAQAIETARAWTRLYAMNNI
The test is classed as functional.

A further test has as its target Nonstructural protein 1 (Influenza A virus, UniProt Q194T2). Type of test: functional, Influenza A virus (A/California/07/2009(H1N1)).
A further test has as its target T3, Bcl-2-related protein A1 (Mus musculus, UniProt Q07440).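 Further: confirmatory dose–response counterscreen on Bfl-1, used to check hits from a UBC13 polyubiquitin inhibitor campaign.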
T3 sequence (Q07440 whole entry): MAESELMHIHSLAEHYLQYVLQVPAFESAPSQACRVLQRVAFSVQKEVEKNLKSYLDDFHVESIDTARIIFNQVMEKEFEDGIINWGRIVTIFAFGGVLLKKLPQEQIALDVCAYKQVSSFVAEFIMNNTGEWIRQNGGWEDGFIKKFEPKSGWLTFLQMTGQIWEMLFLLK
Type of test: functional.

Test [3] has as its target T2, Ubiquitin-conjugating enzyme E2 N. Type of test: functional. The source holds these as a separate data set.
Test [4] deals with Lysine-specific demethylase 4C (Homo sapiens, UniProt Q9H3R0). The experiment in a line: GASC-1 (JMJD2C) histone demethylase inhibitors, dose response, biochemical, DELFIA europium, cherry-picked samples (AID 488835). The test is classed as functional.
Lysine-specific demethylase 4C, sequence (Q9H3R0 whole entry): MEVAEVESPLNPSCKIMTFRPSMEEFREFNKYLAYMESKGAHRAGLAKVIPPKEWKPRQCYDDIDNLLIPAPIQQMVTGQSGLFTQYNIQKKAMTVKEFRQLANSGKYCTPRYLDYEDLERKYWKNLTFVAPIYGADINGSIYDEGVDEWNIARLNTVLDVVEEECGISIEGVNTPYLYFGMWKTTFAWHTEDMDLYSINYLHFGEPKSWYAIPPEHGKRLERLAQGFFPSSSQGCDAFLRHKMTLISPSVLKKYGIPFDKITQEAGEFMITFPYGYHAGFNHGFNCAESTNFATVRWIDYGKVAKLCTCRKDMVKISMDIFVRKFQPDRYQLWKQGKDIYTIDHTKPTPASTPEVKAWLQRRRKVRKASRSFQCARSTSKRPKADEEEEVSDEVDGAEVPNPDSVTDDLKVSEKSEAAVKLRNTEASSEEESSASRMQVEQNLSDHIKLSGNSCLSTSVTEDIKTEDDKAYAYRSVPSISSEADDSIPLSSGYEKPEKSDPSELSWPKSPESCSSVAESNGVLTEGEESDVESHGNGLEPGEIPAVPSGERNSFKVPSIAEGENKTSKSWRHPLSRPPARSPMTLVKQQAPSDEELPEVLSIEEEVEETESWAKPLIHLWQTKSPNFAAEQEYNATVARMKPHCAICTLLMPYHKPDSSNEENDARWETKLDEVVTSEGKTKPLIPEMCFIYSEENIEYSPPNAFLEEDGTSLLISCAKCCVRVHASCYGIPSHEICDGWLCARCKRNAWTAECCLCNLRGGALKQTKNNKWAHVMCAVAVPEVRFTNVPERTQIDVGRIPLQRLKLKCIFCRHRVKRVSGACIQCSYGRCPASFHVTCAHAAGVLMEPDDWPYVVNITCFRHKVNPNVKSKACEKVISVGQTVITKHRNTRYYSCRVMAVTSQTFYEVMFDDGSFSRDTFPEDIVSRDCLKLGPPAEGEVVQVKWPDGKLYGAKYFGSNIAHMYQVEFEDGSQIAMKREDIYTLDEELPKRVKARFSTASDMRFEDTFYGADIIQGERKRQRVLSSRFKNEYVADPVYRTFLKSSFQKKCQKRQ
In a further test the target is T4, Coagulation factor XII (Homo sapiens, UniProt P00748).
T4 sequence (P00748 whole entry): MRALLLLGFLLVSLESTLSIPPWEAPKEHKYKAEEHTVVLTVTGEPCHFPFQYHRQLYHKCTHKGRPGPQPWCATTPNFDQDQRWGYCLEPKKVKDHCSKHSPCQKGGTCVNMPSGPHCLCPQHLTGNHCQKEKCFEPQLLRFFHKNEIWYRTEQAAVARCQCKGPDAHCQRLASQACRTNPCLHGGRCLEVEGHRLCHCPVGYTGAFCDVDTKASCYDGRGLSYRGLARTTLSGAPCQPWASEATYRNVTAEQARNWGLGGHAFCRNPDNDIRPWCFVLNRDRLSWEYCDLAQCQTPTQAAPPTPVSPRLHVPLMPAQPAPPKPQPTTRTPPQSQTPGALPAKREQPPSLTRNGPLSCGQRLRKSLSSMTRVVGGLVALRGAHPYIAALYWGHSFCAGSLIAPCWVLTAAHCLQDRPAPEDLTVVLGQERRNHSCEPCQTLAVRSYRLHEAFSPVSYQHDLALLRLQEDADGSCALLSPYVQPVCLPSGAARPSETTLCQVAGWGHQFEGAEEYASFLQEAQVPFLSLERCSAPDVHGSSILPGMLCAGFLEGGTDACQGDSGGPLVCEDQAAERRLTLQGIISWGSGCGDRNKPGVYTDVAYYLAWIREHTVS
The experiment in a line: FXIIa inhibitor potency, concentration-response, biochemical (AID 716). Type of test: functional.

The target in test [5] is Neuropeptide Y receptor type 2 (Homo sapiens, UniProt P49146). The test is classed as functional, cell-based.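 Further: HEK293 cells expressing the receptor and a CNG channel; stimulus was NPY near EC95 followed by isoproterenol to raise cAMP; antagonist potency measured as restoring cAMP signal that NPY suppresses.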
Neuropeptide Y receptor type 2, sequence (P49146 whole entry): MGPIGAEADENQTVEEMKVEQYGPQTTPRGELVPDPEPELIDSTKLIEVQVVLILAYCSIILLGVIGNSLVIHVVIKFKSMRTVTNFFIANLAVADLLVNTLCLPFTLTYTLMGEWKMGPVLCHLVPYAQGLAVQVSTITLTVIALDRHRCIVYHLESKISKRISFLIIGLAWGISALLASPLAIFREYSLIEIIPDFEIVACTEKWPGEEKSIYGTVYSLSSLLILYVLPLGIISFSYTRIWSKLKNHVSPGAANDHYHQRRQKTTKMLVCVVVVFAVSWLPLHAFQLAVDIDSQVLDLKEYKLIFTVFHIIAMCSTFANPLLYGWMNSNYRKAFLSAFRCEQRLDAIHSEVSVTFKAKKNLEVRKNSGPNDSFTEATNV
Test [6] concerns the target T5, Replicative DNA helicase DnaB (Mycobacterium tuberculosis, UniProt P9WMR3).
T5 sequence (P9WMR3 whole entry): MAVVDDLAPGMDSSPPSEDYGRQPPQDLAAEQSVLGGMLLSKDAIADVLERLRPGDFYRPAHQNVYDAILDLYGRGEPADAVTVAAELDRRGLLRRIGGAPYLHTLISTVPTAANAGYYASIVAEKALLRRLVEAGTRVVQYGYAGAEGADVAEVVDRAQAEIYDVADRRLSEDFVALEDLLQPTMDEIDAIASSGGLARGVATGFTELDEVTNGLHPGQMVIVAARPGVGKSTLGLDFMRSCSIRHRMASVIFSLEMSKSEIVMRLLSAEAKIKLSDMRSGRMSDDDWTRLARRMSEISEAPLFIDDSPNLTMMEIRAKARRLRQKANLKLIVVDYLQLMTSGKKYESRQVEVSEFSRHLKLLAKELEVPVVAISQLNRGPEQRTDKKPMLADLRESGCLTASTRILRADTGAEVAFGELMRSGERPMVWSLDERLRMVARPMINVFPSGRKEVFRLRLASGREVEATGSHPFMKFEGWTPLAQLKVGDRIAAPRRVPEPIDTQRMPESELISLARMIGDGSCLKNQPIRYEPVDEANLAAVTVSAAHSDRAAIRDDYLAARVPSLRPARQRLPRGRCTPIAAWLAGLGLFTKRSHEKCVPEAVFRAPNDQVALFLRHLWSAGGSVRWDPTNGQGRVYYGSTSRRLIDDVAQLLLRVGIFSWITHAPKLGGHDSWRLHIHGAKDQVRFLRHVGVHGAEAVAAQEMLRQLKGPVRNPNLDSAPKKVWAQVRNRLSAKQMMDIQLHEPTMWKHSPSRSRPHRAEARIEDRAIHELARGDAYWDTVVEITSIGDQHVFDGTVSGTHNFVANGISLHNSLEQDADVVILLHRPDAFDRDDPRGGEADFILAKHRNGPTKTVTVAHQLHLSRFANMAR
The experiment in a line: DnaB intein splicing inhibitors, dose response, biochemical, cell-free fluorescence (AID 449749). Type of test: functional.

A short description of test [7]: Intein inhibitors as potential Tuberculosis drugs, a cytotoxicity screen. [Related pubchem assays (depositor defined):AID2221, AID2223, AID434968, AID435010, AID449749, AID449750, AID489010]. Type of test: functional.
Test [8] deals with Neuropeptide Y receptor type 1 (Homo sapiens, UniProt P25929). Type of test: functional.
Neuropeptide Y receptor type 1, sequence (P25929 whole entry): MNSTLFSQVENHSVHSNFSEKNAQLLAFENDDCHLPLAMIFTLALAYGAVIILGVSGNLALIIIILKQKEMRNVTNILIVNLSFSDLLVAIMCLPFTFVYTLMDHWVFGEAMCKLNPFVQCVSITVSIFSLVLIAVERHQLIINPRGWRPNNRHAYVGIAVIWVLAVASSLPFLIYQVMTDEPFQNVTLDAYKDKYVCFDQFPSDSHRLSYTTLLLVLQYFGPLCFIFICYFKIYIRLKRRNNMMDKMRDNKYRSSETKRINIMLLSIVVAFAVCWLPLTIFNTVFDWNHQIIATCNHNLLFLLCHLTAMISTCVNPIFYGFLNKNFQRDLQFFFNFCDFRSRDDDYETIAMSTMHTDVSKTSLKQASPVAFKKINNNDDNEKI
The next test deals with T6, Protein RecA (Mycobacterium tuberculosis, UniProt P9WHJ3).
T6 sequence (P9WHJ3 whole entry): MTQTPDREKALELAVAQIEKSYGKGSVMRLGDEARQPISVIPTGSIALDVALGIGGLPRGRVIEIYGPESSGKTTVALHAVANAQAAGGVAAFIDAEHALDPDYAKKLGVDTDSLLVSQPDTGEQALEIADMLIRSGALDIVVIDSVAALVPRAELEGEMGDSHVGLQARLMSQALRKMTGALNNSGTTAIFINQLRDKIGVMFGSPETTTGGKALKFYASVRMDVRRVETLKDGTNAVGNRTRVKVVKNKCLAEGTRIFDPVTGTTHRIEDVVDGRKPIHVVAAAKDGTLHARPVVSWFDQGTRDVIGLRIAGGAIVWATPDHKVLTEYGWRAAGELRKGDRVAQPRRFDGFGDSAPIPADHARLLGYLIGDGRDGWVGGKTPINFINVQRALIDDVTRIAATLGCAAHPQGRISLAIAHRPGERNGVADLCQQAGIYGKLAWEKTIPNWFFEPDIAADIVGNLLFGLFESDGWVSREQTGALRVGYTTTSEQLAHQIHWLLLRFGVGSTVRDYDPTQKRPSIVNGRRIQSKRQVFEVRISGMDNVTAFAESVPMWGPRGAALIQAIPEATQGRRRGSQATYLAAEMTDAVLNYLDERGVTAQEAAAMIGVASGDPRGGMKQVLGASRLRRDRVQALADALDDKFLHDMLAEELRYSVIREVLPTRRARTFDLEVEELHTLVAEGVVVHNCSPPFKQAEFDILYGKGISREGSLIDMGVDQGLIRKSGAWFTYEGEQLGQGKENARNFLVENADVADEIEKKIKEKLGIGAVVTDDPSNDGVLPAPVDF
The experiment in a line: Fluorescence Cell-Free Homogeneous Dose Retest to Identify Inhibitors of RecA-Intein Splicing Activity. [Related pubchem assays (depositor defined):AID2097, AID2223, AID489010, AID492950]. The test is classed as functional.

The next test has as its system INS1. In words: beta cell apoptosis inhibitors, cytokine rescue, dose response, luminescence, retest (AID 449756).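 Further: cell death triggered by IL-1 beta plus TNF-alpha plus IFN-gamma mixture; protective hits raise ATP signal compared with cytokine alone wells.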 The test is classed as functional, cell-based. To be noted: Rattus norvegicus.
In test [9] the target is T7, Alkaline phosphatase, tissue-nonspecific isozyme (Homo sapiens, UniProt P05186).
T7 sequence (P05186 whole entry): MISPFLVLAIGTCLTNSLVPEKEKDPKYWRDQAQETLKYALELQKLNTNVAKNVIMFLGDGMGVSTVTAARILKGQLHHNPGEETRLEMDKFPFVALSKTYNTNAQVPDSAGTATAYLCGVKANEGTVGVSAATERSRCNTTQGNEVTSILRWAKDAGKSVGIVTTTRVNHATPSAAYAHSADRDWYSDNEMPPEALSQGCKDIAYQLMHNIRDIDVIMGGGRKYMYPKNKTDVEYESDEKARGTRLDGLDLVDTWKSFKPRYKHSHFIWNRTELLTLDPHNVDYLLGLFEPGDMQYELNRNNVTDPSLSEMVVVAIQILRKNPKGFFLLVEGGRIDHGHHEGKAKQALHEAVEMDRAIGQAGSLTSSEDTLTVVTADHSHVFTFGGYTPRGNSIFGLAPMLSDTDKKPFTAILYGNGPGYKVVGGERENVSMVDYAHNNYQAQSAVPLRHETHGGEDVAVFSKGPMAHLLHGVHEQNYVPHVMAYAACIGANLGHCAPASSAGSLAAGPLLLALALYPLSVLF
In words: human TNAP enzyme inhibitors, SAR follow-up, biochemical, luminescent, dose response (AID 1056).

Test [10] deals with Intestinal-type alkaline phosphatase (Homo sapiens, UniProt P09923). In words: Dose Response confirmation of uHTS hits from a small molecule inhibitors of human intestinal alkaline phosphatase via a luminescent assay. [Related pubchem assays (depositor defined):AID2544, AID2574]. The test is classed as functional.
Intestinal-type alkaline phosphatase, sequence (P09923 whole entry): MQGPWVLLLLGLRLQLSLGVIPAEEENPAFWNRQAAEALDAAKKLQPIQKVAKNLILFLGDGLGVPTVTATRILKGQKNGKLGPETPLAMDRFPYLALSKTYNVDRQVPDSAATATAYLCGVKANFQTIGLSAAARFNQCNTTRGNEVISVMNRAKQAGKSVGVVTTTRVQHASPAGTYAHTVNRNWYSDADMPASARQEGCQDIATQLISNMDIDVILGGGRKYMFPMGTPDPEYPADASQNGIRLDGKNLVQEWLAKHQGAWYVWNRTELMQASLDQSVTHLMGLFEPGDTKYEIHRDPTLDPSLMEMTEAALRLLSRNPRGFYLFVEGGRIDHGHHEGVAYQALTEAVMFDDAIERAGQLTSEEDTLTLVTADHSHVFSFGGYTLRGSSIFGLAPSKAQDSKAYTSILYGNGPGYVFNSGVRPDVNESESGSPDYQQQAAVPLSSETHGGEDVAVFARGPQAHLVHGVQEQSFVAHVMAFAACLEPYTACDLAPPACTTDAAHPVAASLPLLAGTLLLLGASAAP
Test [11] addresses Alkaline phosphatase, placental type (Homo sapiens, UniProt P05187). In words: PLAP enzyme inhibitors, confirmation, biochemical, luminescence (AID 1512). Type of test: functional.

Activity calls are given as the source filed them. Bounds are passed on as bounds.
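Wherever CC50 is given: cells exposed to compound for 72 hours before luminescence readout.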

Nonstructural protein 1, sequence (Q194T2 whole entry): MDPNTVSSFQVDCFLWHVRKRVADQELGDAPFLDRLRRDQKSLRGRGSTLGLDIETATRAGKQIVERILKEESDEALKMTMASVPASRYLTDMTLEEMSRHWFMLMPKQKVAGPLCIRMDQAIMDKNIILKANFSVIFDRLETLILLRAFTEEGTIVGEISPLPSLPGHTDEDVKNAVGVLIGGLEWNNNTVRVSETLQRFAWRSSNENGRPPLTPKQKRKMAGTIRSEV
Alkaline phosphatase, placental type, sequence (P05187 whole entry): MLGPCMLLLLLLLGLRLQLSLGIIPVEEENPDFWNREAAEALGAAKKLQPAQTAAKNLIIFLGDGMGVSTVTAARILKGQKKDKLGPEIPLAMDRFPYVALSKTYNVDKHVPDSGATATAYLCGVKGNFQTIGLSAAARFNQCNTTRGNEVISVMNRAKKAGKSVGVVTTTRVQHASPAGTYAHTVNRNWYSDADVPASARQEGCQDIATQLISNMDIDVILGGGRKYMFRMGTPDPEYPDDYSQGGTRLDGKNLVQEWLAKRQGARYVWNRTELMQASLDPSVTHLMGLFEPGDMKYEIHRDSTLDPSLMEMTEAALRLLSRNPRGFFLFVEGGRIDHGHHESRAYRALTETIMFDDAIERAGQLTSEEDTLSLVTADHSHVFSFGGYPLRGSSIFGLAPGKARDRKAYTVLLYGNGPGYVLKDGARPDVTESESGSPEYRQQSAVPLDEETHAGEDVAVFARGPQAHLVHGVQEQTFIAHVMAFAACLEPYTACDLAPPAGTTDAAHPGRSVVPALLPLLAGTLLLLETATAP

For the compound `Cc1ccccc1NC1=NN=C(c2ccccc2F)CS1`, the EC50 (usually the concentration needed to bring the measured effect to its halfway point) at Hexokinase HKDC1 is 27 µM (inactive); at Hexokinase-1 it was 53.2 µM (inactive).
On to `Cc1cccc(-n2cnc(C(=O)NN=C(S)Nc3ccccc3)c2)n1`, for which the IC50 (in general, the concentration that inhibits the measured activity by half) in test [1] is > 122 µM (inactive); in [2], 6.96 µM (active); on Nonstructural protein 1, 4.86 µM (active); on Bcl-2-related protein A1, > 20 µM (inactive); in [3], 14.8 µM (active). Also, the AC50 (commonly the midpoint of the concentration-response curve, whichever way the signal moves) in [4] is 5.67 µM (active).
For `CCOC(=O)CSc1nnc(CNC(=O)Cc2ccccc2)n1C`, the IC50 on Coagulation factor XII is > 50 µM (inactive).
As to `COC(=O)c1c(C)oc2ccc(N(C(=O)c3ccncc3)S(=O)(=O)c3ccc4ccccc4c3)cc12`, the concentration for half-maximal inhibition (IC50) in [5] was 7.94 µM (active); in test [8] it was 4.84 µM (active). In addition, the values for the AC50 (in test [6]; in the test with INS1) were 4.46 µM (active) and 12.9 µM (active), respectively. Besides, the cytotoxic concentration (CC50) (commonly the concentration giving 50% cytotoxicity) in [7] was 36.5 µM (active). In addition, the EC50 on Protein RecA was 4.08 µM (active).
Consider `Cc1cc2nc(C3CCN(Cc4nnnn4Cc4cccs4)CC3)[nH]c2cc1C`, for which the IC50 is 5.64 µM (active) in test [9], > 100 µM (inactive) in test [10] and 2.73 µM (active) in test [11].
